# In patent publication US7943770B2, “Fused quinoline derivative and use thereof” (Takeda Pharmaceutical Company Limited, priority 2004, dated 2011):
# Molecular target: T1, hNK2 receptor (Homo sapiens, UniProt P21452)
# T1 construct: host or cells: CHO cells
# T1 sequence (P21452 1-398): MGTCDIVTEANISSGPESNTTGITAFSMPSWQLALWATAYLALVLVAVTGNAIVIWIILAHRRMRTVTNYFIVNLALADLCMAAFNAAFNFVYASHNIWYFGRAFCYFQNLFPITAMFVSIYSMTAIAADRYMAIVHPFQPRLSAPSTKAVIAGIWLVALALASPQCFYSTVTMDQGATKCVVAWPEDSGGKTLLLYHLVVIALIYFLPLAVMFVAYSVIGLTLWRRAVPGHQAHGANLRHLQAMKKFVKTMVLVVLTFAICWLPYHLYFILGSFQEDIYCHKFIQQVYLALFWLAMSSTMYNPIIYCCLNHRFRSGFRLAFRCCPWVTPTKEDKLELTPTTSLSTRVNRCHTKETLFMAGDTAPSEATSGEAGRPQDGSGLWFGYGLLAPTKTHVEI
# Experiment: Radio-ligand ([125I]-NKA) receptor binding inhibitory activity using membrane fraction of hNK2 receptor-expressing CHO cell
# Conditions: membrane fraction of hNK2 receptor-expressing CHO cells, 25° C., 30 min
# Procedure, shortened: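 Membranes from hNK2-expressing CHO cells (20 μg/mL suspension) incubated with test compound and [125I]-NKA ([…] solution as added) in Tris-HCl pH 7.4 with BSA, protease inhibitors, 3 mM MnCl2, 25 °C, 30 min. Bound radioactivity by GF/C filtration and scintillation; inhibition expressed relative to specific binding (total minus unlabeled-NKA non-specific).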
row,IC50,SMILES
1,< 1 nM,"COC[C@@H]1Nc2ccccc2[C@H]2[C@@H]1CCN2C(=O)[C@H]1CCCC[C@H]1NC(=O)c1ccc(C(F)(F)F)cc1 [Example 210, N-((1R,2S)-2-{[(3aR,4R,9bR)-4-(Methoxymethyl)-2,3,3a,4,5,9b-hexahydro-1H-pyrrolo[3,2-c]quinolin-1-yl]carbonyl}cyclohexyl)-4-(trifluoromethyl)benzamide]"
2,< 10 nM,"COC[C@@H]1Nc2ccccc2[C@H]2[C@@H]1CCN2C(=O)[C@H]1CCCC[C@H]1NC(=O)c1ccc(C)nc1 [Example 211, N-((1R,2S)-2-{[(3aR,4R,9bR)-4-(Methoxymethyl)-2,3,3a,4,5,9b-hexahydro-1H-pyrrolo[3,2-c]quinolin-1-yl]carbonyl}cyclohexyl)-6-methylnicotinamide]"
3,< 1 nM,"COC[C@@H]1Nc2ccccc2[C@H]2[C@@H]1CCN2C(=O)[C@H]1CCCC[C@H]1NC(=O)c1ccc(F)c(F)c1 [Example 212, 3,4-Difluoro-N-((1R,2S)-2-{[(3aR,4R,9bR)-4-(methoxymethyl)-2,3,3a,4,5,9b-hexahydro-1H-pyrrolo[3,2-c]quinolin-1-yl]carbonyl}cyclohexyl)benzamide]"
4,< 1 nM,"COC[C@@H]1Nc2ccccc2[C@H]2[C@@H]1CCN2C(=O)[C@H]1CCCC[C@H]1NC(=O)c1ccc(N(C)C)cc1 [Example 213, 4-(Dimethylamino)-N-((1R,2S)-2-{[(3aR,4R,9bR)-4-(methoxymethyl)-2,3,3a,4,5,9b-hexahydro-1H-pyrrolo[3,2-c]quinolin-1-yl]carbonyl}cyclohexyl)benzamide]"
5,< 1 nM,"COC[C@@H]1Nc2ccccc2[C@H]2[C@@H]1CCN2C(=O)[C@H]1CCCC[C@H]1NC(=O)c1ccc(OC(F)(F)F)cc1 [Example 215, N-((1R,2S)-2-{[(3aR,4R,9bR)-4-(Methoxymethyl)-2,3,3a,4,5,9b-hexahydro-1H-pyrrolo[3,2-c]quinolin-1-yl]carbonyl}cyclohexyl)-4-(trifluoromethoxy)benzamide]"
6,< 10 nM,"COC[C@@H]1Nc2ccccc2[C@H]2[C@@H]1CCN2C(=O)[C@H]1CCCC[C@H]1NC(=O)c1ccc(C#N)cc1 [Example 216, 4-Cyano-N-((1R,2S)-2-{[(3aR,4R,9bR)-4-(methoxymethyl)-2,3,3a,4,5,9b-hexahydro-1H-pyrrolo[3,2-c]quinolin-1-yl]carbonyl}cyclohexyl)benzamide]"
7,< 1 nM,"COC[C@@H]1Nc2ccccc2[C@H]2[C@@H]1CCN2C(=O)[C@H]1CCCC[C@H]1NC(=O)Nc1ccc(C#N)cc1 [Example 217, N-(Cyanophenyl)-N′-((1R,2S)-2-{[(3aR,4R,9bR)-4-(methoxymethyl)-2,3,3a,4,5,9b-hexahydro-1H-pyrrolo[3,2-c]quinolin-1-yl]carbonyl}cyclohexyl)urea]"
8,< 1 nM,"COC[C@@H]1Nc2ccccc2[C@H]2[C@@H]1CCN2C(=O)[C@H]1CCCC[C@H]1NC(=O)c1ccc2[nH]ccc2c1 [Example 218, N-((1R,2S)-2-{[(3aR,4R,9bR)-4-(Methoxymethyl)-2,3,3a,4,5,9b-hexahydro-1H-pyrrolo[3,2-c]quinolin-1-yl]carbonyl}cyclohexyl)-1H-indole-5-carboxamide]"
9,< 1 nM,"COC[C@@H]1Nc2ccccc2[C@H]2[C@@H]1CCN2C(=O)[C@H]1CCCC[C@H]1NC(=O)c1ccc2[nH]nnc2c1 [Example 219, N-((1R,2S)-2-{[(3aR,4R,9bR)-4-(methoxymethyl)-2,3,3a,4,5,9b-hexahydro-1H-pyrrolo[3,2-c]quinolin-1-yl]carbonyl}cyclohexyl)-1H-1,2,3-benzotriazole-5-carboxamide]"
10,< 1 nM,"COC[C@@H]1Nc2ccccc2[C@H]2[C@@H]1CCN2C(=O)[C@H]1CCCC[C@H]1NC(=O)c1cc2ccccc2[nH]1 [Example 229, N-((1R,2S)-2-{[(3aR,4R,9bR)-4-(Methoxymethyl)-2,3,3a,4,5,9b-hexahydro-1H-pyrrolo[3,2-c]quinolin-1-yl]carbonyl}cyclohexyl)-4H-indole-2-carboxamide]"
11,< 10 nM,"COC[C@@H]1Nc2ccccc2[C@H]2[C@@H]1CCN2C(=O)[C@H]1CCCC[C@H]1NC(=O)c1ccccc1C#N [Example 232, 2-Cyano-N-((1R,2S)-2-{[(3aR,4R,9bR)-4-(methoxymethyl)-2,3,3a,4,5,9b-hexahydro-1H-pyrrolo[3,2-c]quinolin-1-yl]carbonyl}cyclohexyl)benzamide]"
12,< 10 nM,"COC[C@@H]1Nc2ccccc2[C@H]2[C@@H]1CCN2C(=O)[C@H]1CCCC[C@H]1NC(=O)c1cccc(C#N)c1 [Example 233, 3-Cyano-N-((1R,2S)-2-{[(3aR,4R,9bR)-4-(methoxymethyl)-2,3,3a,4,5,9b-hexahydro-1H-pyrrolo[3,2-c]quinolin-1-yl]carbonyl}cyclohexyl)benzamide]"
13,< 1 nM,"COC[C@@H]1Nc2ccccc2[C@H]2[C@@H]1CCN2C(=O)[C@H]1CCCC[C@H]1NC(=O)c1ccc(OC(F)F)cc1 [Example 234, 4-(Difluoromethoxy)-N-((1R,2S)-2-{[(3aR,4R,9bR)-4-(methoxymethyl)-2,3,3a,4,5,9b-hexahydro-1H-pyrrolo[3,2-c]quinolin-1-yl]carbonyl}cyclohexyl)benzamide]"
14,< 1 nM,"COC[C@@H]1Nc2ccccc2[C@H]2[C@@H]1CCN2C(=O)[C@H]1CCCC[C@H]1NC(=O)c1nc2ccccc2[nH]1 [Example 237, N-((1R,2S)-2-{[(3aR,4R,9bR)-4-(Methoxymethyl)-2,3,3a,4,5,9b-hexahydro-1H-pyrrolo[3,2-c]quinolin-1-yl]carbonyl}cyclohexyl)-1H-benzimidazole-2-carboxamide]"
15,< 10 nM,"COC[C@@H]1Nc2ccccc2[C@H]2[C@@H]1CCN2C(=O)[C@H]1CCCC[C@H]1NC(=O)CNc1ccccc1 [Example 238, N^1-((1R,2S)-2-{[(3aR,4R,9bR)-4-(Methoxymethyl)-2,3,3a,4,5,9b-hexahydro-1H-pyrrolo[3,2-c]quinolin-1-yl]carbonyl}cyclohexyl)-N^2-phenylglycinamide]"
16,< 1 nM,"CNc1ccc(C(=O)N[C@@H]2CCCC[C@@H]2C(=O)N2CC[C@@H]3[C@H](COC)Nc4ccccc4[C@@H]32)cc1 [Example 239, N-((1R,2S)-2-{[(3aR,4R,9bR)-4-(Methoxymethyl)-2,3,3a,4,5,9b-hexahydro-1H-pyrrolo[3,2-c]quinolin-1-yl]carbonyl}cyclohexyl)-4-(methylamino)benzamide]"
17,< 10 nM,"COC[C@@H]1Nc2ccccc2[C@H]2[C@@H]1CCN2C(=O)[C@H]1CCCC[C@H]1NC(=O)c1cccc(N(C)C)c1 [Example 241, 3-(Dimethylamino)-N-((1R,2S)-2-{[(3aR,4R,9bR)-4-(methoxymethyl)-2,3,3a,4,5,9b-hexahydro-1H-pyrrolo[3,2-c]quinolin-1-yl]carbonyl}cyclohexyl)benzamide]"
18,< 10 nM,"COC[C@@H]1Nc2ccccc2[C@H]2[C@@H]1CCN2C(=O)[C@H]1CCCC[C@H]1NC(=O)c1c[nH]c2ccccc12 [Example 244, N-((1R,2S)-2-{[(3aR,4R,9bR)-4-(Methoxymethyl)-2,3,3a,4,5,9b-hexahydro-1H-pyrrolo[3,2-c]quinolin-1-yl]carbonyl}cyclohexyl)-1H-indole-3-carboxamide]"
19,< 10 nM,"COC[C@@H]1Nc2ccccc2[C@H]2[C@@H]1CCN2C(=O)[C@H]1CCCC[C@H]1NC(=O)c1ccc(S(N)(=O)=O)cc1 [Example 245, 4-(Aminosulfonyl)-N-((1R,2S)-2-{[(3aR,4R,9bR)-4-(methoxymethyl)-2,3,3a,4,5,9b-hexahydro-1H-pyrrolo[3,2-c]quinolin-1-yl]carbonyl}cyclohexyl)benzamide]"
20,< 10 nM,"COC[C@@H]1Nc2ccccc2[C@H]2[C@@H]1CCN2C(=O)[C@H]1CCCC[C@H]1NC(=O)c1ccc2nccnc2c1 [Example 246, N-((1R,2S)-2-{[(3aR,4R,9bR)-4-(Methoxymethyl)-2,3,3a,4,5,9b-hexahydro-1H-pyrrolo[3,2-c]quinolin-1-yl]carbonyl}cyclohexyl)quinoxaline-6-carboxamide]"
21,< 10 nM,"COC[C@@H]1Nc2ccccc2[C@H]2[C@@H]1CCN2C(=O)[C@H]1CCCC[C@H]1NC(=O)c1ccc2ccccc2n1 [Example 247, N-((1R,2S)-2-{[(3aR,4R,9bR)-4-(Methoxymethyl)-2,3,3a,4,5,9b-hexahydro-1H-pyrrolo[3,2-c]quinolin-1-yl]carbonyl}cyclohexyl)quinoline-2-carboxamide]"
22,< 1 nM,"COC[C@@H]1Nc2ccccc2[C@H]2[C@@H]1CCN2C(=O)[C@H]1CCCC[C@H]1NC(=O)c1ccc2c(c1)CCO2 [Example 248, N-((1R,2S)-2-{[(3aR,4R,9bR)-4-(Methoxymethyl)-2,3,3a,4,5,9b-hexahydro-1H-pyrrolo[3,2-c]quinolin-1-yl]carbonyl}cyclohexyl)-2,3-dihydro-1-benzofuran-5-carboxamide]"
23,< 10 nM,"COC[C@@H]1Nc2ccccc2[C@H]2[C@@H]1CCN2C(=O)[C@H]1CCCC[C@H]1NC(=O)c1onc2ccccc12 [Example 249, N-((1R,2S)-2-{[(3aR,4R,9bR)-4-(Methoxymethyl)-2,3,3a,4,5,9b-hexahydro-1H-pyrrolo[3,2-c]quinolin-1-yl]carbonyl}cyclohexyl)-2,1-benzisoxazole-3-carboxamide]"
24,< 1 nM,"COC[C@@H]1Nc2ccccc2[C@H]2[C@@H]1CCN2C(=O)[C@H]1CCCC[C@H]1NC(=O)c1ccc(-n2ccnc2)cc1 [Example 250, 4-(1H-Imidazol-1-yl)-N-((1R,2S)-2-{[(3aR,4R,9bR)-4-(methoxymethyl)-2,3,3a,4,5,9b-hexahydro-1H-pyrrolo[3,2-c]quinolin-1-yl]carbonyl}cyclohexyl)benzamide]"
